According to ChEMBL document CHEMBL2429780, “Synthesis, antimicrobial and cytotoxic activity of 2-azetidinone derivatives of pyridyl benzimidazoles” (Med Chem Res, 2013):
Active and inactive are the calls of the source.

Tests used:
Format in all cases: functional, organism-based
[1] = system: Aspergillus clavatus; assay: Antifungal activity against Aspergillus clavatus assessed as growth inhibition at 12.5 to 1000 ug/mL after 48 hrs by broth dilution assay
[2] = system: Streptococcus pyogenes; assay: Antibacterial activity against Streptococcus pyogenes MTCC 442 assessed as growth inhibition at 12.5 to 1000 ug/mL after 24 hrs by broth dilution assay
[3] = system: Escherichia coli; assay: Antibacterial activity against Escherichia coli MTCC 443 assessed as growth inhibition at 12.5 to 1000 ug/mL after 24 hrs by broth dilution assay
[4] = system: Staphylococcus aureus; assay: Antibacterial activity against Staphylococcus aureus MTCC 96 assessed as growth inhibition at 12.5 to 1000 ug/mL after 24 hrs by broth dilution assay
[5] = system: Candida albicans; assay: Antifungal activity against Candida albicans assessed as growth inhibition at 12.5 to 1000 ug/mL after 48 hrs by broth dilution assay
[6] = system: Pseudomonas aeruginosa; assay: Antibacterial activity against Pseudomonas aeruginosa MTCC 1688 assessed as growth inhibition at 12.5 to 1000 ug/mL after 24 hrs by broth dilution assay
[7] = system: Aspergillus niger; assay: Antifungal activity against Aspergillus niger assessed as growth inhibition at 12.5 to 1000 ug/mL after 48 hrs by broth dilution assay

Measured: growth inhibition (GI)

COc1ccc(-c2cc(-c3nc4ccccc4[nH]3)nc(N)c2C#N)cc1
inactive: all assays above
